Source: patent US9718819B2 (Merck Sharp & Dohme Corp., priority 2012, dated 2017)

Target: HIV-1 RT wild-type enzyme (Human immunodeficiency virus type 1 group M subtype B (isolate HXB2) (HIV-1), UniProt P04585)
Experiment: HIV-1 reverse transcriptase inhibitory activity (RT polymerase assay)
Assay type: biochemical
Conditions: HIV-1 RT wild-type enzyme 83 pM; RNA-dependent DNA polymerase activity; read-out: IC50
How it was run: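 Enzyme and compound were preincubated 30 min at room temperature, then RNA/DNA hybrid (16.6 nM final; HCV-derived RNA, biotinylated primer) plus 2 μM dNTPs and 66.6 nM Ru-dUTP added, 90 min at 37 °C. Avidin capture and ECL counting; percent inhibition relative to DMSO (0%) and 1 μM efavirenz (100%), four-parameter IC50 fit.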

Row | Structure (SMILES) | IC50
1 | COc1cccc(F)c1-c1cc(Cn2cnc(C(F)(F)F)c(Oc3cc(Cl)cc(C#N)c3)c2=O)n[nH]c1=O [Example 51, 3-chloro-5-((1-((5-(2-fluoro-6-methoxyphenyl)-6-oxo-1,6-dihydropyridazin-3-yl)methyl)-6-oxo-4-(trifluoromethyl)-1,6-dihydropyrimidin-5-yl)oxy)benzonitrile] | 358 nM
2 | CS(=O)(=O)c1ccc(-c2cc(Cn3cnc(C(F)(F)F)c(Oc4cc(Cl)cc(C#N)c4)c3=O)n[nH]c2=O)cc1 [Example 67, 3-chloro-5-((1-((5-(4-(methylsulfonyl)phenyl)-6-oxo-1,6-dihydropyridazin-3-yl)methyl)-6-oxo-4-(trifluoromethyl)-1,6-dihydropyrimidin-5-yl)oxy)benzonitrile] | 12 nM
3 | CC(O)c1cc(Cn2cnc(C(F)(F)F)c(Oc3cc(Cl)cc(C#N)c3)c2=O)n[nH]c1=O (centres unmarked) [Example 14, 3-chloro-5-((1-((5-(1-hydroxyethyl)-6-oxo-1,6-dihydropyridazin-3-yl)methyl)-6-oxo-4-(trifluoromethyl)-1,6-dihydropyrimidin-5-yl)oxy)benzonitrile] | 109 nM
4 | N#Cc1cc(Cl)cc(Oc2c(C(F)(F)F)ncn(Cc3cc(Br)c(=O)[nH]n3)c2=O)c1 [Example 90, 3-((1-((5-bromo-6-oxo-1,6-dihydropyridazin-3-yl)methyl)-6-oxo-4-(trifluoromethyl)-1,6-dihydropyrimidin-5-yl)oxy)-5-chlorobenzonitrile] | 6 nM
5 | N#Cc1cc(Cl)cc(Oc2c(C3CC3)ncn(Cc3ccc(=O)[nH]n3)c2=O)c1 [Example 134, 3-chloro-5-((4-cyclopropyl-6-oxo-1-((6-oxo-1,6-dihydropyridazin-3-yl)methyl)-1,6-dihydropyrimidin-5-yl)oxy)benzonitrile] | 17 nM
6 | CC(F)(F)c1cc(Cn2cnc(C(C)(F)F)c(Oc3cccc(C#N)c3F)c2=O)c(=O)[nH]n1 [Example 182, 3-((4-(1,1-difluoroethyl)-1-((6-(1,1-difluoroethyl)-3-oxo-2,3-dihydropyridazin-4-yl)methyl)-6-oxo-1,6-dihydropyrimidin-5-yl)oxy)-2-fluorobenzonitrile] | 9 nM
7 | Cc1cc(F)cc(-c2cc(Cn3cnc(C(F)(F)F)c(Oc4cc(Cl)cc(C#N)c4)c3=O)n[nH]c2=O)c1 [Example 60, 3-chloro-5-((1-((5-(3-fluoro-5-methylphenyl)-6-oxo-1,6-dihydropyridazin-3-yl)methyl)-6-oxo-4-(trifluoromethyl)-1,6-dihydropyrimidin-5-yl)oxy)benzonitrile] | 7 nM
8 | N#Cc1cc(Cl)cc(Oc2c(C(F)(F)F)ncn(Cc3cc(-c4ccncc4)c(=O)[nH]n3)c2=O)c1 [Example 81, 3-chloro-5-((6-oxo-1-((6-oxo-5-(pyridin-4-yl)-1,6-dihydropyridazin-3-yl)methyl)-4-(trifluoromethyl)-1,6-dihydropyrimidin-5-yl)oxy)benzonitrile] | 9 nM
9 | N#Cc1cc(Cl)cc(Oc2c(C(F)(F)F)ncn(Cc3cc(-c4ccc(C(O)C(F)F)cc4)c(=O)[nH]n3)c2=O)c1 (centres unmarked) [Example 69, 3-chloro-5-((1-((5-(4-(2,2-difluoro-1-hydroxyethyl)phenyl)-6-oxo-1,6-dihydropyridazin-3-yl)methyl)-6-oxo-4-(trifluoromethyl)-1,6-dihydropyrimidin-5-yl)oxy)benzonitrile] | 10 nM
10 | N#Cc1cc(Cl)cc(Oc2c(C(F)(F)F)ncn(Cc3ccc(=O)[nH]n3)c2=O)c1Cl [Example 18, 2,5-dichloro-3-((6-oxo-1-((6-oxo-1,6-dihydropyridazin-3-yl)methyl)-4-(trifluoromethyl)-1,6-dihydropyrimidin-5-yl)oxy)benzonitrile] | 5 nM
11 | N#Cc1cc(Cl)cc(Oc2c(C(F)(F)F)ncn(Cc3cnc(-c4ccc(OC(F)F)cc4)[nH]c3=O)c2=O)c1 [Example 159, 3-chloro-5-((1-((2-(4-(difluoromethoxy)phenyl)-6-oxo-1,6-dihydropyrimidin-5-yl)methyl)-6-oxo-4-(trifluoromethyl)-1,6-dihydropyrimidin-5-yl)oxy)benzonitrile] | 17 nM
12 | CC(F)(F)c1cc(Cn2cnc(C(C)(F)F)c(Oc3cc(Cl)cc(C#N)c3)c2=O)c(=O)[nH]n1 [Example 180, 3-chloro-5-((4-(1,1-difluoroethyl)-1-((6-(1,1-difluoroethyl)-3-oxo-2,3-dihydropyridazin-4-yl)methyl)-6-oxo-1,6-dihydropyrimidin-5-yl)oxy)benzonitrile] | 5 nM
13 | N#Cc1cc(Cl)cc(Oc2c(C(F)(F)F)ncn(Cc3cnc(Oc4ccc(F)cc4)[nH]c3=O)c2=O)c1 [Example 140, 3-Chloro-5-{1-[2-(4-fluoro-phenoxy)-6-oxo-1,6-dihydro-pyrimidin-5-ylmethyl]-6-oxo-4-trifluoromethyl-1,6-dihydro-pyrimidin-5-yloxy}-benzonitrile] | 36 nM
14 | N#Cc1cc(Cl)cc(Oc2c(C(F)(F)F)ncn(Cc3cc(-n4cccn4)c(=O)[nH]n3)c2=O)c1 [Example 93, 3-chloro-5-((6-oxo-1-((6-oxo-5-(1H-pyrazol-1-yl)-1,6-dihydropyridazin-3-yl)methyl)-4-(trifluoromethyl)-1,6-dihydropyrimidin-5-yl)oxy)benzonitrile] | 11 nM
15 | CC(F)c1cc(Cn2cnc(C(F)(F)F)c(Oc3cc(Cl)cc(C#N)c3)c2=O)n[nH]c1=O (centres unmarked) [Example 15, 3-chloro-5-((1-((5-(1-fluoroethyl)-6-oxo-1,6-dihydropyridazin-3-yl)methyl)-6-oxo-4-(trifluoromethyl)-1,6-dihydropyrimidin-5-yl)oxy)benzonitrile] | 13 nM
16 | N#Cc1cc(Cl)cc(Oc2c(C(F)(F)F)ncn(Cc3cc(-c4ccc5c(c4)CCO5)c(=O)[nH]n3)c2=O)c1 [Example 64, 3-chloro-5-((1-((5-(2,3-dihydrobenzofuran-5-yl)-6-oxo-1,6-dihydropyridazin-3-yl)methyl)-6-oxo-4-(trifluoromethyl)-1,6-dihydropyrimidin-5-yl)oxy)benzonitrile] | 3 nM
17 | COc1ccc(-c2cc(Cn3cnc(C(F)(F)F)c(Oc4cc(Cl)cc(C#N)c4)c3=O)n[nH]c2=O)c(F)c1 [Example 45, 3-chloro-5-((1-((5-(2-fluoro-4-methoxyphenyl)-6-oxo-1,6-dihydropyridazin-3-yl)methyl)-6-oxo-4-(trifluoromethyl)-1,6-dihydropyrimidin-5-yl)oxy)benzonitrile] | 6 nM
18 | Cc1cc(-c2cc(Cn3cnc(C(F)(F)F)c(Oc4cc(Cl)cc(C#N)c4)c3=O)n[nH]c2=O)ccc1F [Example 37, 3-chloro-5-((1-((5-(4-fluoro-3-methylphenyl)-6-oxo-1,6-dihydropyridazin-3-yl)methyl)-6-oxo-4-(trifluoromethyl)-1,6-dihydropyrimidin-5-yl)oxy)benzonitrile] | 5 nM
19 | N#Cc1cc(Cl)cc(Oc2c(C(F)(F)F)ncn(Cc3cc(-c4cc(F)cc(F)c4)c(=O)[nH]n3)c2=O)c1 [Example 33, 3-chloro-5-((1-((5-(3,5-difluorophenyl)-6-oxo-1,6-dihydropyridazin-3-yl)methyl)-6-oxo-4-(trifluoromethyl)-1,6-dihydropyrimidin-5-yl)oxy)benzonitrile] | 7 nM
20 | Cc1ccc(F)c(-c2cc(Cn3cnc(C(F)(F)F)c(Oc4cc(Cl)cc(C#N)c4)c3=O)n[nH]c2=O)c1 [Example 39, 3-chloro-5-((1-((5-(2-fluoro-5-methylphenyl)-6-oxo-1,6-dihydropyridazin-3-yl)methyl)-6-oxo-4-(trifluoromethyl)-1,6-dihydropyrimidin-5-yl)oxy)benzonitrile] | 10 nM
21 | N#Cc1cc(Cl)cc(Oc2c(C(F)(F)F)ncn(Cc3cc(-c4cccc5c4OCC5)c(=O)[nH]n3)c2=O)c1 [Example 57, 3-chloro-5-((1-((5-(2,3-dihydrobenzofuran-7-yl)-6-oxo-1,6-dihydropyridazin-3-yl)methyl)-6-oxo-4-(trifluoromethyl)-1,6-dihydropyrimidin-5-yl)oxy)benzonitrile] | 11 nM
22 | N#Cc1cc(Cl)cc(Oc2c(C(F)(F)F)ncn(Cc3cc(-c4ccc(F)nc4)c(=O)[nH]n3)c2=O)c1 [Example 78, 3-chloro-5-((1-((5-(6-fluoropyridin-3-yl)-6-oxo-1,6-dihydropyridazin-3-yl)methyl)-6-oxo-4-(trifluoromethyl)-1,6-dihydropyrimidin-5-yl)oxy)benzonitrile] | 6 nM
23 | CS(=O)(=O)c1cc(Cn2cnc(C(F)(F)F)c(Oc3cc(Cl)cc(C#N)c3)c2=O)n[nH]c1=O [Example 96, 3-chloro-5-((1-((5-(methylsulfonyl)-6-oxo-1,6-dihydropyridazin-3-yl)methyl)-6-oxo-4-(trifluoromethyl)-1,6-dihydropyrimidin-5-yl)oxy)benzonitrile] | 336 nM
24 | N#Cc1cc(Cl)cc(Oc2c(C(F)(F)F)ncn(Cc3cc(-c4ccc(F)cc4Cl)c(=O)[nH]n3)c2=O)c1 [Example 40, 3-chloro-5-((1-((5-(2-chloro-4-fluorophenyl)-6-oxo-1,6-dihydropyridazin-3-yl)methyl)-6-oxo-4-(trifluoromethyl)-1,6-dihydropyrimidin-5-yl)oxy)benzonitrile] | 70 nM
25 | N#Cc1cc(Cl)cc(Oc2c(C(F)(F)F)ncn(Cc3cc(C#N)c(=O)[nH]n3)c2=O)c1 [Example 95, 6-((5-(3-chloro-5-cyanophenoxy)-6-oxo-4-(trifluoromethyl)pyrimidin-1(6H)-yl)methyl)-3-oxo-2,3-dihydropyridazine-4-carbonitrile] | 8 nM
26 | N#Cc1cc(Cl)cc(Oc2c(C(F)(F)F)ncn(Cc3cnc(C#N)[nH]c3=O)c2=O)c1 [Example 155, 5-((5-(3-chloro-5-cyanophenoxy)-6-oxo-4-(trifluoromethyl)pyrimidin-1(6H)-yl)methyl)-6-oxo-1,6-dihydropyrimidine-2-carbonitrile] | 94 nM
